From patent US20120157452A1, “1H-PYRAZOLO[3,4-B] PYRIDINE COMPOUNDS FOR INHIBITING RAF KINASE” (GENENTECH, INC., priority 2009, published 2012) come the findings set out here.

The assay addresses T1, V600E full-length B-Raf (Homo sapiens, UniProt P15056, V600E).
T1 construct: made in house; host or cells: Sf9 insect cells (baculovirus)
The experiment in a line: B-Raf IC50 assay: incorporation of radio labeled phosphate from [γ-33P]ATP into FSBA-modified wild-type MEK. In kind it is biochemical. An excerpt:
Determining the activity of Raf in the sample is possible by a number of direct and indirect detection methods (US 2004/0082014). Activity of human recombinant B-Raf protein may be assessed in vitro by assay of the incorporation of radio labeled phosphate to recombinant MAP kinase (MEK), a known physiologic substrate of B-Raf, according to US 2004/0127496 and WO 03/022840. The activity/inhibition of V600E full-length B-Raf was estimated by measuring the incorporation of radio labeled phosphate from [γ-^33]ATP into FSBA-modified wild-type MEK (see Biological Example 1).
Activity of human recombinant B-Raf protein may be assessed in vitro by assay of the incorporation of radio labeled phosphate to recombinant MAP kinase (MEK), a known physiologic substrate of B-Raf, according to US 2004/0127496 and WO 03/022840. Catalytically active human recombinant B-Raf protein is obtained by purification from sf9 insect cells infected with a human B-Raf recombinant baculovirus expression vector.
The activity/inhibition of V600E full-length B-Raf was estimated by measuring the incorporation of radio labeled phosphate from [γ-^33]ATP into FSBA-modified wild-type MEK. The 30-μL, assay mixtures contained 25 mM Na Pipes, pH 7.2, 100 mM KCl, 10 mM MgCl2, 5 mM β-glycerophosphate, 100 μM Na Vanadate, 4 μM ATP, 500 nCi [γ-^33P]ATP, 1 μM FSBA-MEK and 20 nM V600E full-length B-Raf. Incubations were carried out at 22° C. in a Costar 3365 plate (Corning). Prior to the assay, the B-Raf and FSBA-MEK were preincubated together in assay buffer at 1.5× (20 μL of 30 nM and 1.5 μM, respectively) for 15 minutes, and the assay was initiated by the addition of 10 μL of […]. Following the 60-minute incubation, the assay mixtures were quenched by the addition of 100 μL of 25% TCA, the plate was mixed on a rotary shaker for 1 minute, and the product was captured on a Perkin-Elmer GF/B filter plate using a Tomtec Mach III Harvester. After sealing the bottom of the plate, 35 μL of Bio-Safe II (Research Products International) scintillation cocktail were added to each well and the plate was top-sealed and counted in a Topcount NXT (Packard).

[1] abbreviates: 4 μM ATP, 60-minute incubation, representative data of multiple tests.

SMILES strings stand for the structures.

T1 sequence (P15056 whole entry V600E): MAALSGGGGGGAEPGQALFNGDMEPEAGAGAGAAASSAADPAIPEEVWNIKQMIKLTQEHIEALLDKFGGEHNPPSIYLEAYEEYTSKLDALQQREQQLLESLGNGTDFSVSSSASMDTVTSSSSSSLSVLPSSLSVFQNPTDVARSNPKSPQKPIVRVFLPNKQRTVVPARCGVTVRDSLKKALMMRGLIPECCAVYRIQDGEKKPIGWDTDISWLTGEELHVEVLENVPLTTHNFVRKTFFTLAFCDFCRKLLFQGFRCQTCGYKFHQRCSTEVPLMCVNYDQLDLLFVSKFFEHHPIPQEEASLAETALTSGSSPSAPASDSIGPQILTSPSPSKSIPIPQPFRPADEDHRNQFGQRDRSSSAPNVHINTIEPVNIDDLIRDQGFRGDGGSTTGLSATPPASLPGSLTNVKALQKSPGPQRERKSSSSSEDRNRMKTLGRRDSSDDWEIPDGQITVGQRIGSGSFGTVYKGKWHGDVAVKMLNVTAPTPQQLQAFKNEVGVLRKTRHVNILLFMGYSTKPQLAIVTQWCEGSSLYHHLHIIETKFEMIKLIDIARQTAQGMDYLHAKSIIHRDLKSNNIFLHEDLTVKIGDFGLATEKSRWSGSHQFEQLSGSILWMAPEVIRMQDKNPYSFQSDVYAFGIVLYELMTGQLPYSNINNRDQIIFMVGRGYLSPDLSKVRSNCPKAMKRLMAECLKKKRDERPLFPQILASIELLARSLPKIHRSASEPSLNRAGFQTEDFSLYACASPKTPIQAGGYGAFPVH

In the case of `COc1n[nH]c2ncc(NC(=O)c3c(Cl)ccc(OCc4ccn(C)n4)c3F)cc12` [Example 58, 6-chloro-2-fluoro-N-(3-methoxy-1H-pyrazolo[3,4-b]pyridin-5-yl)-3-((1-methyl-1H-pyrazolo-3-yl)methoxy)benzamide], inhibition under setting [1] was half-maximal at 37.1 nM (IC50) and the IC50 – broadly, the concentration needed to halve the response being measured – (bound stated) was under 100 nM.
Take `COc1n[nH]c2ncc(NC(=O)c3c(Cl)ccc(OCc4cccc5[nH]ccc45)c3F)cc12` [Example 76, 3-((1H-indol-4-yl)methoxy)-6-chloro-2-fluoro-N-(3-methoxy-1H-pyrazolo[3,4-b]pyridin-5-yl)benzamide]: the IC50 is 13 nM under setting [1] and under 100 nM (bound stated).
`COc1n[nH]c2ncc(NC(=O)c3c(F)ccc(OCc4ccccc4)c3Cl)cc12` [Example 33, 3-(benzyloxy)-2-chloro-6-fluoro-N-(3-methoxy-1H-pyrazolo[3,4-b]pyridin-5-yl)benzamide] returned an IC50 under setting [1] of 17.2 nM and an IC50 (bound stated) of under 100 nM.
On the same counts, the results for `COc1n[nH]c2ncc(NC(=O)c3c(Cl)ccc(OCc4ccc5c(c4)CCO5)c3F)cc12` [Example 65] are 0.63 nM and under 100 nM.
For `CNc1n[nH]c2ncc(NC(=O)c3c(Cl)ccc(OCc4ccccc4)c3F)cc12` [Example 11, 3-benzyloxy-6-chloro-2-fluoro-N-(3-(methylamino)-1H-pyrazolo[3,4-b]pyridin-5-yl)benzamide] the same measures were 7.03 nM and under 100 nM.
On the same counts, the results for `CC(C)Oc1n[nH]c2ncc(NC(=O)c3c(Cl)ccc(OCc4ccccc4)c3F)cc12` [Example 16, 3-(benzyloxy)-6-chloro-2-fluoro-N-(3-isopropoxy-1H-pyrazolo[3,4-b]pyridin-5-yl)benzamide] are 1.71 nM and under 100 nM.
Turning to `COc1n[nH]c2ncc(NC(=O)c3c(Cl)ccc(OCc4ccncn4)c3F)cc12` [Example 40, 6-chloro-2-fluoro-N-(3-methoxy-1H-pyrazolo[3,4-b]pyridin-5-yl)-3-(pyrimidin-4-ylmethoxy)benzamide], the IC50 runs as follows: under setting [1], 27 nM; (bound stated) under 100 nM.
Turning to `COc1n[nH]c2ncc(NC(=O)c3c(Cl)ccc(OCc4scnc4C)c3F)cc12` [Example 52, 6-chloro-2-fluoro-N-(3-methoxy-1H-pyrazolo[3,4-b]pyridin-5-yl)-3-((4-methylthiazol-5-yl)methoxy)benzamide], the IC50 is 70.4 nM under setting [1] and under 100 nM (bound stated).
For the compound `Cc1n[nH]c2ncc(NC(=O)c3c(Cl)ccc(OCc4ccccc4)c3F)cc12` [Example 34, 3-(benzyloxy)-6-chloro-2-fluoro-N-(3-methyl-1H-pyrazolo[3,4-b]pyridin-5-yl)benzamide], the IC50 under setting [1] was determined as 4.83 nM and the concentration for half-maximal inhibition (IC50) (bound stated) is under 100 nM.
On the same counts, the results for `COc1n[nH]c2ncc(NC(=O)c3c(Cl)ccc(OCc4cccc(Cl)c4)c3F)cc12` [Example 50, 6-chloro-3-(3-chlorobenzyloxy)-2-fluoro-N-(3-methoxy-1H-pyrazolo[3,4-b]pyridin-5-yl)benzamide] are 1.22 nM and under 100 nM.
`CN(C)CCOc1n[nH]c2ncc(NC(=O)c3c(Cl)ccc(OCc4ccccc4)c3F)cc12` [Example 17, 3-(benzyloxy)-6-chloro-N-(3-(2-(dimethylamino)ethoxy)-1H-pyrazolo[3,4-b]pyridin-5-yl)-2-fluorobenzamide] displayed an IC50 under setting [1] of 11.1 nM and an IC50 (bound stated) of under 100 nM.
For `COc1n[nH]c2ncc(NC(=O)c3c(Cl)ccc(OCc4ccc(C5CC5)cc4)c3F)cc12` [Example 77, 6-chloro-3-(4-cyclo-propylbenzyloxy)-2-fluoro-N-(3-methoxy-1H-pyrazolo[3,4-b]pyridin-5-yl)benzamide] the same measures were 0.56 nM and under 100 nM.
On the same counts, the results for `COc1n[nH]c2ncc(NC(=O)c3c(Cl)ccc(OCc4ccc(C(F)(F)F)nc4)c3F)cc12` [Example 43, 6-chloro-2-fluoro-N-(3-methoxy-1H-pyrazolo[3,4-b]pyridin-5-yl)-3-((6-(trifluoromethyl)pyridin-3-yl)methoxy)benzamide] are 2.63 nM and under 100 nM.
